Tests used:
[1] = system: Lung cell lines NCI-h69 and NCI-h82; assay: [18F]WC-4-138 uptake in cell culture, small cell lung cancer lines; format: cell-based; settings: NCI-h69 and NCI-h82, incubation 5, 30 or 60 minutes, normalized to protein
Method: In these experiments, the head and neck squamous cell carcinoma lines SCC1, SCC15, and SCC25 (ATCC) were propagated in Dulbecco's Modified Eagle's Medium (DMEM, Gibco) supplemented with 10% Fetal Bovine Serum (FBS, Gibco), Penicillin-Streptomycin (P/S, Gibco), and 100 ng/ml hydrocortisone (Sigma-Aldrich). The small cell lung cancer lines NCI-h69 and NCI-h82 (ATCC) were propagated m RPMI Medium (Gibco) supplemented with 10% FBS and 1% P/S. The human breast cancer cell line MDA-MB-231 (ATCC) was propagated in Eagle's Minimum Essential Medium (Gibco) supplemented with 5% FBS, 2% Vitamins for MEM (Gibco), 1% 200 mM L-glutamine (Gibco), 1% 10 mM Non-Essential Amino Acid (NEAA, Gibco).
For each experimental replicate, approximately 1 μCi of [^18F]WC-4-138 was diluted in 1 ml of cell culture medium and added to 10^6 cells. […] Radioactivity was measured in the collected medium, PBS, or cell pellets. Protein from the cell pellet was quantified using a […]. All data were decay-corrected and normalized to total protein quantity in the cell pellet. […]
The head and neck cell lines SCC1 and SCC25 constitutively take up small amounts of tracer, registering as 0.001-0.002 μCi/μg in the cell pellet (FIG. 5A). […] PARP activity was measured in HNSCC or lung SCLC cells. […]

[2] = Estimated human dosimetry from mouse biodistribution study (MIRD)
Description: Estimates were obtained from the organ residence times calculated from the mouse biodistribution data, shown in Table 1, using standard MIRD methodology.

Compound: O=C1NCCn2c(-c3ccc(OCC[18F])cc3)nc3cccc1c32 [[^18F]12]
- tracer uptake in the cell pellet [1]: 0.004-0.006 μCi/μg
- Estimated human dosimetry, Adrenals ([2]; Female): 0.052 rad/mCi
- Estimated human dosimetry, Brain ([2]; Female): 0.022 rad/mCi
- Estimated human dosimetry, Breasts ([2]; Female): 0.019 rad/mCi
- Estimated human dosimetry, Effective Dose ([2]; Female): 0.057 rem/mCi
- Estimated human dosimetry, Effective Dose Equivalent ([2]; Female): 0.075 rad/mCi
- Estimated human dosimetry, Gallbladder Wall ([2]; Female): 0.033 rad/mCi
- Estimated human dosimetry, Heart Wall ([2]; Female): 0.047 rad/mCi
- Estimated human dosimetry, Kidneys ([2]; Female): 0.093 rad/mCi
- Estimated human dosimetry, LLI Wall ([2]; Female): 0.036 rad/mCi
- Estimated human dosimetry, Liver ([2]; Female): 0.065 rad/mCi
- Estimated human dosimetry, Lungs ([2]; Female): 0.045 rad/mCi
- Estimated human dosimetry, Muscle ([2]; Female): 0.035 rad/mCi
- Estimated human dosimetry, Osteogenic Cells ([2]; Female): 0.203 rad/mCi
- Estimated human dosimetry, Ovaries ([2]; Female): 0.045 rad/mCi
- Estimated human dosimetry, Pancreas ([2]; Female): 0.064 rad/mCi
- Estimated human dosimetry, Red Marrow ([2]; Female): 0.069 rad/mCi
- Estimated human dosimetry, Skin ([2]; Female): 0.019 rad/mCi
- Estimated human dosimetry, Small Intestine ([2]; Female): 0.030 rad/mCi
- Estimated human dosimetry, Spleen ([2]; Female): 0.133 rad/mCi
- Estimated human dosimetry, Stomach Wall ([2]; Female): 0.030 rad/mCi
- Estimated human dosimetry, Thymus ([2]; Female): 0.026 rad/mCi
- Estimated human dosimetry, Thyroid ([2]; Female): 0.038 rad/mCi
- Estimated human dosimetry, Total Body ([2]; Female): 0.039 rad/mCi
- Estimated human dosimetry, ULI Wall ([2]; Female): 0.031 rad/mCi
- Estimated human dosimetry, Urinary Bladder Wall ([2]; Female): 0.301 rad/mCi
- Estimated human dosimetry, Uterus ([2]; Female): 0.053 rad/mCi
- Estimated human dosimetry, Adrenals ([2]; Male): 0.043 rad/mCi
- Estimated human dosimetry, Brain ([2]; Male): 0.019 rad/mCi
- Estimated human dosimetry, Effective Dose ([2]; Male): 0.047 rem/mCi
- Estimated human dosimetry, Effective Dose Equivalent ([2]; Male): 0.062 rad/mCi
- Estimated human dosimetry, Gallbladder Wall ([2]; Male): 0.028 rad/mCi
- Estimated human dosimetry, Heart Wall ([2]; Male): 0.038 rad/mCi
- Estimated human dosimetry, Kidneys ([2]; Male): 0.083 rad/mCi
- Estimated human dosimetry, LLI Wall ([2]; Male): 0.029 rad/mCi
- Estimated human dosimetry, Liver ([2]; Male): 0.050 rad/mCi
- Estimated human dosimetry, Lungs ([2]; Male): 0.035 rad/mCi
- Estimated human dosimetry, Muscle ([2]; Male): 0.026 rad/mCi
- Estimated human dosimetry, Osteogenic Cells ([2]; Male): 0.155 rad/mCi
- Estimated human dosimetry, Pancreas ([2]; Male): 0.055 rad/mCi
- Estimated human dosimetry, Red Marrow ([2]; Male): 0.061 rad/mCi
- Estimated human dosimetry, Skin ([2]; Male): 0.016 rad/mCi
- Estimated human dosimetry, Small Intestine ([2]; Male): 0.026 rad/mCi
- Estimated human dosimetry, Spleen ([2]; Male): 0.110 rad/mCi
- Estimated human dosimetry, Stomach Wall ([2]; Male): 0.024 rad/mCi
- Estimated human dosimetry, Testes ([2]; Male): 0.022 rad/mCi
- Estimated human dosimetry, Thymus ([2]; Male): 0.020 rad/mCi
- Estimated human dosimetry, Thyroid ([2]; Male): 0.033 rad/mCi
- Estimated human dosimetry, Total Body ([2]; Male): 0.031 rad/mCi
- Estimated human dosimetry, ULI Wall ([2]; Male): 0.025 rad/mCi
- Estimated human dosimetry, Urinary Bladder Wall ([2]; Male): 0.220 rad/mCi
